The results in this text go back to patent US20230287217A1, “Zwitterionic Cell-Permeant and Water-Soluble Rhodamine Dyes for Quantitative Imaging Applications” (OREGON HEALTH & SCIENCE UNIVERSITY, priority 2020, published 2023).

Series [1] is described as follows: Absorption and fluorescence stability against solvent polarity changes (dioxane 20-80% in DI water). It counts as physicochemical. The note with it: compared with base fluorophores TMR and SiTMR (SiR). From the text:
FIG. 2D graphs normalized absorption (left) and fluorescence spectra (right) of fluorophores with varied percentages of dioxane (20-80%) in DI water resulting the polarity of the screening solvent systems changing in a gradient manner.
A. general rhodamine fluorophore structures including the classic TMR, SiTMR, and the sulfonated versions. […] This structural change results because the carboxylate anion attacks the central carbon forming a spirolactone, which is both colorless and non-fluorescent. […] C. […] This change in both absorbance and fluorescence intensity was alleviated using our sulfonated versions.

Series [2] is described as follows: UV-Vis absorption and fluorescence spectroscopy (spectral properties in aqueous media / PBS buffer). The note with it: for Brightness / Stokes Shift (nm) / FWHMabs (nm) / λabs (nm) / FWHem (nm) / λem (nm) / ε (M^-1 cm-1) / ϕ: aqueous media; for FWHMabs (nm): absorption band width; for λabs (nm): absorption maximum; for FWHem (nm): emission band width; for λem (nm): emission maximum; for ε (M^-1 cm-1): extinction coefficient from Beer's Law plots; for ϕ: relative quantum yield, TMR and SiTMR as reference. On the set-up: Brightness: unit not given here. It counts as physicochemical. As to the method:
UV-Vis and fluorescence spectra were collected on a SpectraMax M5 spectrometer with a Microplate reader (Molecular Devices, Sunnyvale, CA). All absorbance spectra were reference corrected. Extinction coefficient was calculated from Beer’s Law plots of absorbance versus concentration. Relative quantum yields are reported using TMR and SiTMR as reference.

For `Cc1ccccc1-c1c2cc/c(=[N+](/C)CCCS(=O)(=O)[O-])cc-2oc2cc(N(C)C)ccc12` [OF550], in series [1], the “stability of absorbance and fluorescence intensity against solvent polarity changes” value (shortened to “stability … against solvent polarity changes”) is recorded as “substantially improved stability”. In series [2], the Brightness is on record as 59, the “Stokes Shift (nm)” value was found to be 23 nm, the “FWHMabs (nm)” value came to 33 nm and the “λabs (nm)” value is 552 nm. Further, in series [2], the “FWHem (nm)” value is reported as 40 nm, the “λem (nm)” value is reported as 575 nm, the “ε (M^-1 cm-1)” value is 97,300 M^-1 cm-1 and the ϕ came to 0.61.

For `Cc1ccccc1C1=C2C=C/C(=[N+](/C)CCCS(=O)(=O)[O-])C=C2[Si](C)(C)c2cc(N(C)C)ccc21` [OF650], the “stability … against solvent polarity changes” value in series [1] was “substantially improved stability”. Also, the “brightness compared with the base fluorophore SiTMR” value in series [2] (PBS buffer) is on record as “five time greater”. In series [2], the Brightness amounted to 55, the “Stokes Shift (nm)” value came out at 19 nm, the “FWHMabs (nm)” value is 33 nm and the “λabs (nm)” value turned out to be 649 nm. For the same compound, in series [2], the “FWHem (nm)” value was 40 nm, the “λem (nm)” value worked out at 668 nm, the “ε (M^-1 cm-1)” value is 125,500 M^-1 cm-1 and the ϕ is 0.44.

As to `CN(C)c1ccc2c(c1)[Si](C)(C)C1=CC(=[N+](C)C)C=CC1=C2c1ccccc1C(=O)O` [SiR], in series [1], the “stability … against solvent polarity changes” value is “diminished rapidly”. In series [2], the Brightness was 7, the “Stokes Shift (nm)” value came out at 20 nm, the “FWHMabs (nm)” value came out at 39 nm and the “λabs (nm)” value came to 642 nm. In series [2], the “FWHem (nm)” value is reported as 41 nm, the “λem (nm)” value is given as 662 nm, the “ε (M^-1 cm-1)” value is 19,200 M^-1 cm-1 and the ϕ was found to be 0.35.

For the compound `Cc1cc(C(=O)NCCOCCOCCCCCCCl)ccc1-c1c2cc/c(=[N+](/C)CCCS(=O)(=O)[O-])cc-2oc2cc(N(C)C)ccc12` [OF550HALO, (E)((9-(4-((2-(2-((6-chlorohexyl)oxy)ethoxy)ethyl)carbamoyl)-2-methylphenyl)-6-(dimethylamino)-3H-xanthenylidene)(methyl)ammonio)propane-1-sulfonate], in series [2], the Brightness turned out to be 53, the “Stokes Shift (nm)” value is 25 nm, the “FWHMabs (nm)” value came to 34 nm and the “λabs (nm)” value is 556 nm. In addition, in series [2], the “FWHem (nm)” value is 42 nm, the “λem (nm)” value came out at 581 nm, the “ε (M^-1 cm-1)” value is listed as 97,200 M^-1 cm-1 and the ϕ is 0.55.

Regarding `Cc1cc(C(=O)[O-])ccc1C1=C2C=C/C(=[N+](/C)CCCS(=O)(=O)O)C=C2[Si](C)(C)c2cc(N(C)C)ccc21` [OF650COOH, (E)-3-((10-(4-carboxy-2-methylphenyl)-7-(dimethylamino)-5,5-dimethyldibenzo[b,e]silin-3(5H)-ylidene)(methyl)ammonio)propane-1-sulfonate], in series [2], the Brightness was determined as 82, the “Stokes Shift (nm)” value came to 22 nm, the “FWHMabs (nm)” value is on record as 34 nm and the “λabs (nm)” value is given as 650 nm. Besides, in series [2], the “FWHem (nm)” value is 42 nm, the “λem (nm)” value is given as 672 nm, the “ε (M^-1 cm-1)” value is recorded as 200,600 M^-1 cm-1 and the ϕ was 0.41.

On to `Cc1cc(C(=O)NCc2ccc(COc3nc(N)nc4[nH]cnc34)cc2)ccc1-c1c2cc/c(=[N+](/C)CCCS(=O)(=O)[O-])cc-2oc2cc(N(C)C)ccc12` [OF550SNAP, (E)((9-(4-((4-(((2-amino-9H-purin-6-yl)oxy)methyl)benzyl)carbamoyl)-2-methylphenyl)-6-(dimethylamino)-3H-xanthenylidene)(methyl)ammonio)propane-1-sulfonate], for which, in series [2], the Brightness is recorded as 21, the “Stokes Shift (nm)” value was determined as 24 nm, the “FWHMabs (nm)” value is 38 nm and the “λabs (nm)” value turned out to be 556 nm. In addition, in series [2], the “FWHem (nm)” value is reported as 43 nm, the “λem (nm)” value was 580 nm, the “ε (M^-1 cm-1)” value is 59,500 M^-1 cm-1 and the ϕ is 0.36.

Take `CN(C)c1ccc2c(-c3cc(C(=O)NCCCn4cc(-c5cccc(Nc6ncnc7ccccc67)c5)nn4)ccc3C(=O)[O-])c3ccc(=[N+](C)C)cc-3oc2c1` [TMRErl(UnT)]: in series [2], the Brightness turned out to be 7, the “Stokes Shift (nm)” value turned out to be 26 nm, the “FWHMabs (nm)” value is reported as 44 nm and the “λabs (nm)” value was determined as 559 nm. Moreover, in series [2], the “FWHem (nm)” value came to 43 nm, the “λem (nm)” value turned out to be 585 nm, the “ε (M^-1 cm-1)” value was 18,700 M^-1 cm-1 and the ϕ was determined as 0.37.

As for `CN(C)c1ccc2c(c1)[Si](C)(C)C1=CC(=[N+](C)C)C=CC1=C2c1cc(C(=O)NCCOCCOCCCCCCCl)ccc1C(=O)[O-]` [SiRHALO], in series [2], the Brightness is reported as 3, the “Stokes Shift (nm)” value came out at 18 nm, the “FWHMabs (nm)” value was determined as 45 nm and the “λabs (nm)” value was found to be 646 nm. Moreover, in series [2], the “FWHem (nm)” value is 45 nm, the “λem (nm)” value is 664 nm, the “ε (M^-1 cm-1)” value was 11,100 M^-1 cm-1 and the ϕ turned out to be 0.25.

As for `CN(C)c1ccc2c(-c3ccccc3C(=O)[O-])c3ccc(=[N+](C)C)cc-3oc2c1` [TMR], in series [2], the Brightness is recorded as 33, the “Stokes Shift (nm)” value amounted to 25 nm, the “FWHMabs (nm)” value is recorded as 38 nm and the “λabs (nm)” value is recorded as 549 nm. In addition, in series [2], the “FWHem (nm)” value worked out at 42 nm, the “λem (nm)” value worked out at 574 nm, the “ε (M^-1 cm-1)” value is reported as 60,900 M^-1 cm-1 and the ϕ is 0.54.

Turning to `C#Cc1cccc(Nc2ncnc3ccc(NC(=O)CCNC(=O)c4ccc(C(=O)[O-])c(C5=C6C=CC(=[N+](C)C)C=C6[Si](C)(C)c6cc(N(C)C)ccc65)c4)cc23)c1` [SiRErl(T)], in series [2], the Brightness stood at 5, the “Stokes Shift (nm)” value is given as 22 nm, the “FWHMabs (nm)” value worked out at 42 nm and the “λabs (nm)” value is reported as 656 nm. Moreover, in series [2], the “FWHem (nm)” value was 53 nm, the “λem (nm)” value was 678 nm, the “ε (M^-1 cm-1)” value was 34,800 M^-1 cm-1 and the ϕ is reported as 0.13.

For the compound `CN(C)c1ccc2c(-c3cc(C(=O)NCc4ccc(COc5nc(N)nc6[nH]cnc56)cc4)ccc3C(=O)[O-])c3ccc(=[N+](C)C)cc-3oc2c1` [TMRSNAP], in series [2], the Brightness is given as 11, the “Stokes Shift (nm)” value turned out to be 24 nm, the “FWHMabs (nm)” value amounted to 58 nm and the “λabs (nm)” value turned out to be 553 nm. In addition, in series [2], the “FWHem (nm)” value amounted to 45 nm, the “λem (nm)” value was 577 nm, the “ε (M^-1 cm-1)” value is 27,700 M^-1 cm-1 and the ϕ is listed as 0.41.

`C#Cc1cccc(Nc2ncnc3ccc(NC(=O)CCNC(=O)c4ccc(-c5c6cc/c(=[N+](/C)CCCS(=O)(=O)[O-])cc-6oc6cc(N(C)C)ccc56)c(C)c4)cc23)c1` [OF550Erl(T), (E)((6-(dimethylamino)-9-(4-((3-((4-((3-ethynylphenyl)amino)quinazolin-6-yl)amino)oxopropyl)carbamoyl)-2-methylphenyl)-3H-xanthenylidene)(methyl)ammonio)propane-1-sulfonate]: in series [2], the Brightness was 7, the “Stokes Shift (nm)” value was 17 nm, the “FWHMabs (nm)” value was 80 nm and the “λabs (nm)” value came out at 566 nm. In series [2], the “FWHem (nm)” value was 47 nm, the “λem (nm)” value is given as 583 nm, the “ε (M^-1 cm-1)” value is recorded as 24,500 M^-1 cm-1 and the ϕ amounted to 0.28.

On to `C#Cc1cccc(Nc2ncnc3ccc(NC(=O)CCNC(=O)c4ccc(C5=C6C=C/C(=[N+](/C)CCCS(=O)(=O)[O-])C=C6[Si](C)(C)c6cc(N(C)C)ccc65)c(C)c4)cc23)c1` [OF650Erl(T)], for which, in series [2], the Brightness worked out at 7, the “Stokes Shift (nm)” value is 17 nm, the “FWHMabs (nm)” value is recorded as 38 nm and the “λabs (nm)” value is listed as 656 nm. Also, in series [2], the “FWHem (nm)” value was 41 nm, the “λem (nm)” value worked out at 673 nm, the “ε (M^-1 cm-1)” value is 43,400 M^-1 cm-1 and the ϕ worked out at 0.16.
